This note sets out measurements from ChEMBL document CHEMBL6121003, “Design, synthesis, and pharmacological evaluation of triazine-based PI3K/mTOR inhibitors for the potential treatment of non-small cell lung cancer” (Eur J Med Chem, 2025).

One data set has as its system HCC827. The data set is described as follows: Antiproliferative activity against human HCC827 cells measured after 48 hrs by MTT assay. The data set is classed as functional, cell-based. As to conditions: HCC827, 48 h. (Tetrazolium dyes change colour on reduction, which living cells bring about.)
In a further data set the test system is PC-9. In words: Antiproliferative activity against human PC-9 cells measured after 48 hrs by MTT assay. The data set is classed as functional, cell-based. As to conditions: PC-9, 48 h.
Data set [1] concerns the target Phosphatidylinositol 4,5-bisphosphate 3-kinase catalytic subunit alpha isoform (Homo sapiens, UniProt P42336).
Description: Inhibition of PI3Kalpha (unknown origin) using PIP2 as substrate measured after 1 hr in presence of ATP by ADP-glo luminescence assay
Data set [2] deals with Serine/threonine-protein kinase mTOR (Homo sapiens, UniProt P42345). In words: Inhibition of mTOR (unknown origin) using ULight-4E-BP1 as substrate measured after 45 mins in presence of ATP by Lance ultra assay.
For the next data set, the target named is T1, CYP1A2 (Homo sapiens, UniProt P05177).
T1 sequence (P05177 whole entry): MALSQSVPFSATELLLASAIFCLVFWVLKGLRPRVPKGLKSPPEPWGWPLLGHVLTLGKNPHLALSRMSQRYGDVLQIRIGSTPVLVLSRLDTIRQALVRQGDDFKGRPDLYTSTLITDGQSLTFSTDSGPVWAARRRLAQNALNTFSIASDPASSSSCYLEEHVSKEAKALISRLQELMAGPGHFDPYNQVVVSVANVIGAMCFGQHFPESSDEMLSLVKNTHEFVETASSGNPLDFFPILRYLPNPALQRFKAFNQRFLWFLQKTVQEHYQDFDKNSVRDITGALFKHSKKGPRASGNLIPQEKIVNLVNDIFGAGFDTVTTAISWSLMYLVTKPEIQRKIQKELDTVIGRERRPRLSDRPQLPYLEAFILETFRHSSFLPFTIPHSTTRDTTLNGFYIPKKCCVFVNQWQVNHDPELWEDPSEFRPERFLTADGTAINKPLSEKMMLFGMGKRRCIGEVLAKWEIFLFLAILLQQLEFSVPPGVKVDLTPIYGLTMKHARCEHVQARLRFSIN
The data set is described as follows: Inhibition of CYP1A2 (unknown origin) at 10 uM relative to control. In kind it is ADME.

The target in another data set is CYP2D6 (Homo sapiens, UniProt P10635). In words: Inhibition of CYP2D6 (unknown origin) at 10 uM relative to control. The data set is classed as ADME.
The next data set addresses hERG (KCNH2) (Homo sapiens, UniProt Q12809). The data set is described as follows: Inhibition of human ERG at 20 uM relative to control. The data set is classed as toxicity.
The target of data set [3] is Phosphatidylinositol 4,5-bisphosphate 3-kinase catalytic subunit gamma isoform (Homo sapiens, UniProt P48736). In words: Inhibition of PI3K gamma (unknown origin) using PIP2 as substrate measured after 1 hr in presence of ATP by ADP-glo luminescence assay. Background: In ADP-Glo the light output rises with the ADP produced.
In data set [4] the target is Phosphatidylinositol 4,5-bisphosphate 3-kinase catalytic subunit beta isoform (Homo sapiens, UniProt P42338). The data set is described as follows: Inhibition of PI3Kbeta (unknown origin) using PIP2 as substrate measured after 1 hr in presence of ATP by ADP-glo luminescence assay.
In data set [5] the target is T2, Phosphatidylinositol 4,5-bisphosphate 3-kinase catalytic subunit delta isoform (Homo sapiens, UniProt O00329).
T2 sequence (O00329 whole entry): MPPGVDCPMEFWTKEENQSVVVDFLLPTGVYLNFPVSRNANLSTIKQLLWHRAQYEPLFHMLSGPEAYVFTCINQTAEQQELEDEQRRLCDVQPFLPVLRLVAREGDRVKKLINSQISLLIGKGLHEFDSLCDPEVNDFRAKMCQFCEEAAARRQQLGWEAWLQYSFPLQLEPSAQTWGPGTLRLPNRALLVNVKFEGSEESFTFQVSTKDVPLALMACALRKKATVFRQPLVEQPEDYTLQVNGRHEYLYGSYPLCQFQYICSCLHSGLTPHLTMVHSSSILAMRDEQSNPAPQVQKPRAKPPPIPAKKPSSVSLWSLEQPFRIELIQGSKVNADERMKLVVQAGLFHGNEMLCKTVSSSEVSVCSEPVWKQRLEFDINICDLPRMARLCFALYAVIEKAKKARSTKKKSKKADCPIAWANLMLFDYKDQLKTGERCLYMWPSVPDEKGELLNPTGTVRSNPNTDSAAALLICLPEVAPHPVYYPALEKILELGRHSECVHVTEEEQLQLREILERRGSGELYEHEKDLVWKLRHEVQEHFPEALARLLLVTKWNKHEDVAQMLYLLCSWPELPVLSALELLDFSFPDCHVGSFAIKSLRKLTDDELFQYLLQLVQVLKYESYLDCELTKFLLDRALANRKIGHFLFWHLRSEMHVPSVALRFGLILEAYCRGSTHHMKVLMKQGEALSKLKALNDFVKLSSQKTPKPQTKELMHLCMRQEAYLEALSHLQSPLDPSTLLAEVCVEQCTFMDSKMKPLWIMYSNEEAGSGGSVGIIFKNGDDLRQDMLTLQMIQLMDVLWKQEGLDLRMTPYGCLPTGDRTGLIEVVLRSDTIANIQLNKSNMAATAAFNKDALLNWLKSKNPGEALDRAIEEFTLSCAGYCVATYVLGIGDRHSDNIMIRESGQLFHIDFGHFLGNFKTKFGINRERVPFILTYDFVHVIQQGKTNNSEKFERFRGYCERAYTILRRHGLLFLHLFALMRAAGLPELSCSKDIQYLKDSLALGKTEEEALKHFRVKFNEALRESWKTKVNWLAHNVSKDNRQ
In words: Inhibition of PI3K delta (unknown origin) using PIP2 as substrate measured after 1 hr in presence of ATP by ADP-glo luminescence assay.

The target of the next data set is CYP2C9 (Homo sapiens, UniProt P11712). In words: Inhibition of CYP2C9 (unknown origin) at 10 uM relative to control. The data set is classed as ADME.
Another data set has as its target CYP3A4 (Homo sapiens, UniProt P08684). The data set is described as follows: Inhibition of CYP3A4 (unknown origin) at 10 uM relative to control. The data set is classed as ADME.
Data set [6] is described as follows: Toxicity in 8 hrs fasted ICR mouse assessed as effect on blood glucose level at 20 mg/kg, iv measured upto 240 mins by glucometer analysis. As to conditions: in vivo, 4 h. In kind it is organism-based.
Data set [7] is described as follows: Toxicity in nude male Balb/c mouse assessed as effect on body weight at 20 mg/kg, po administered daily for 2 weeks. In kind it is organism-based. As to conditions: in vivo, 336 h.

Phosphatidylinositol 4,5-bisphosphate 3-kinase catalytic subunit gamma isoform, sequence (P48736 whole entry, canonical isoform): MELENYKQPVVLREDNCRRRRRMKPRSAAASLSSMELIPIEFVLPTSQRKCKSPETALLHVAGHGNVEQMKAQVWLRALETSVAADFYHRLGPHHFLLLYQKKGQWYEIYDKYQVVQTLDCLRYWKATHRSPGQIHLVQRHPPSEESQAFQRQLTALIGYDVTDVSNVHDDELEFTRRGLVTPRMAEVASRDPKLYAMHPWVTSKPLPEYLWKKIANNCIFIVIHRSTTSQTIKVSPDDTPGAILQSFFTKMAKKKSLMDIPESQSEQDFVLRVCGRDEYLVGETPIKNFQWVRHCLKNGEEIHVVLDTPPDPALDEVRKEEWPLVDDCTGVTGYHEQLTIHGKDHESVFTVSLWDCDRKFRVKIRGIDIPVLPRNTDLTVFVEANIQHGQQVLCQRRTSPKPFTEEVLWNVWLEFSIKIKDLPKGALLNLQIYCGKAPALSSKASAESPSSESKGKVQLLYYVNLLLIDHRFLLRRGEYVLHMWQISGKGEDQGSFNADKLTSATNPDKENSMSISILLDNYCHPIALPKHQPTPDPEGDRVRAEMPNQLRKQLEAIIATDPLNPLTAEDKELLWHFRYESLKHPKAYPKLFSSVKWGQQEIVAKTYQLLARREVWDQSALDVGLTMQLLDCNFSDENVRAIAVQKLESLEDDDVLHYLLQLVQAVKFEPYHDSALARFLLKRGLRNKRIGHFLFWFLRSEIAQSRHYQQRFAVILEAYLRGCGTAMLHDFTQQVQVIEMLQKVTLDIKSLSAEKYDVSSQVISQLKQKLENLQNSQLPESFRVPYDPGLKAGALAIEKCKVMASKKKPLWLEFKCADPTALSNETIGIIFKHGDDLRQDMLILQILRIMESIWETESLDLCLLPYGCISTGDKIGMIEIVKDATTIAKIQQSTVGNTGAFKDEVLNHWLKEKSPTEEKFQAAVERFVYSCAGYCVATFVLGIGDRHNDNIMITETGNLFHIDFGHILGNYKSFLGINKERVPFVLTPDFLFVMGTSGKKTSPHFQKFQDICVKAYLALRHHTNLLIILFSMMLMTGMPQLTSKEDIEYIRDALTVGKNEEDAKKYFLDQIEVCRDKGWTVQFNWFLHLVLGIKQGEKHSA
Phosphatidylinositol 4,5-bisphosphate 3-kinase catalytic subunit alpha isoform, sequence (P42336 whole entry, canonical isoform): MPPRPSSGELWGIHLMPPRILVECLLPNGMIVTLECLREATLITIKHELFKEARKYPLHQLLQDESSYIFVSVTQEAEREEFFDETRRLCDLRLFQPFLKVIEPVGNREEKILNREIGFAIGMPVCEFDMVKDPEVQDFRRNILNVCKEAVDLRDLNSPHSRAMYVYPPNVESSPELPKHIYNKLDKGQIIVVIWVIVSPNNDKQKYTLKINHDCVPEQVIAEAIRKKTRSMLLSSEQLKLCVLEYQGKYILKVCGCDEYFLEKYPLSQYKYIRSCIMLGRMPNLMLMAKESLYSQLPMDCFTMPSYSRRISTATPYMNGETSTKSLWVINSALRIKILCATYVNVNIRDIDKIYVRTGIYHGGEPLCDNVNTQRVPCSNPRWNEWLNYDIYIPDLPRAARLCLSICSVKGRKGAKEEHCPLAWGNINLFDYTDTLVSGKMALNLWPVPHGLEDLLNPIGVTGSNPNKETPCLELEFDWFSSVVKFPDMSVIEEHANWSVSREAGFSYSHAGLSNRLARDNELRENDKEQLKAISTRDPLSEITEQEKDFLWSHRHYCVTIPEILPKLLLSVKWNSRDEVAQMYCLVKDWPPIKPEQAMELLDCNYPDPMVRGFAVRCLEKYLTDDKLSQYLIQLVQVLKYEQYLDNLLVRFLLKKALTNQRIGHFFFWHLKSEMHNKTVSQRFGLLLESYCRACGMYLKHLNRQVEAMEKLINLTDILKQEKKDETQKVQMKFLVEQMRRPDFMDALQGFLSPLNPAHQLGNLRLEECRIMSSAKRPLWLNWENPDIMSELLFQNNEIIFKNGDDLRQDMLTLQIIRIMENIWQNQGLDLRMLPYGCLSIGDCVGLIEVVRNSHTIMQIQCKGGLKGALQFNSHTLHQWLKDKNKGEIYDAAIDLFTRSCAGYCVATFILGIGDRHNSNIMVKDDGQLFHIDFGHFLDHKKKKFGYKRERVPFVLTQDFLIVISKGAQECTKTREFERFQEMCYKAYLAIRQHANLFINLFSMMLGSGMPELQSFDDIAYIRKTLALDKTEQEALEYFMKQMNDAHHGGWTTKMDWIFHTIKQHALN
Phosphatidylinositol 4,5-bisphosphate 3-kinase catalytic subunit beta isoform, sequence (P42338 whole entry, canonical isoform): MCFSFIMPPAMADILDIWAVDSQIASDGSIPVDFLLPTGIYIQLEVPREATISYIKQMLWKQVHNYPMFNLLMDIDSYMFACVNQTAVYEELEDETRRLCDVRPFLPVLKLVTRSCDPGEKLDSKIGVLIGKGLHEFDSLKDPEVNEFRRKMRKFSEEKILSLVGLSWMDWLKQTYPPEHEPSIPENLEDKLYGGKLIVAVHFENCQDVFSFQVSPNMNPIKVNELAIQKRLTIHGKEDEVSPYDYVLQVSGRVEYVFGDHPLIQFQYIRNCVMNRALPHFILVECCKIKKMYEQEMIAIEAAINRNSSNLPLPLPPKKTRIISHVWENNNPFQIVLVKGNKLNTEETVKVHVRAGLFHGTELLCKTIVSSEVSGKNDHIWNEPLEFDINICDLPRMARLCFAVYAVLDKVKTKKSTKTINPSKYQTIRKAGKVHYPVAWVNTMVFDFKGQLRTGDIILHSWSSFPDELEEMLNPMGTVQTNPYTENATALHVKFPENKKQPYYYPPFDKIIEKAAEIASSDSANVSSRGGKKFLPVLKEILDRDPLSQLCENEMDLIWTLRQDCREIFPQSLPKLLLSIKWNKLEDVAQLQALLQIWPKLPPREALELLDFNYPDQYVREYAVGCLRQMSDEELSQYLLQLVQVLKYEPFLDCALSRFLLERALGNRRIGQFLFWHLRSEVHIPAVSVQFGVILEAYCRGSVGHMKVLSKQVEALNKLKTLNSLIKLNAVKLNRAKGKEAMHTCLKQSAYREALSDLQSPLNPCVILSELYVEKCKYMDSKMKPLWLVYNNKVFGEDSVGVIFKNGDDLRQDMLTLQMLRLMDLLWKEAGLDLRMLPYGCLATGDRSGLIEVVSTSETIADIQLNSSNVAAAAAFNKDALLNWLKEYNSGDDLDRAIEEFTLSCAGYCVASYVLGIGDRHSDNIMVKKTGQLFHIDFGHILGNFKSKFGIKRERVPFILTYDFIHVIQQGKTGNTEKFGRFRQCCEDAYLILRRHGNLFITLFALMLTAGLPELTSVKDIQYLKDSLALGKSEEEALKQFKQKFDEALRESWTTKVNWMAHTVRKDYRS
CYP2D6, sequence (P10635 whole entry): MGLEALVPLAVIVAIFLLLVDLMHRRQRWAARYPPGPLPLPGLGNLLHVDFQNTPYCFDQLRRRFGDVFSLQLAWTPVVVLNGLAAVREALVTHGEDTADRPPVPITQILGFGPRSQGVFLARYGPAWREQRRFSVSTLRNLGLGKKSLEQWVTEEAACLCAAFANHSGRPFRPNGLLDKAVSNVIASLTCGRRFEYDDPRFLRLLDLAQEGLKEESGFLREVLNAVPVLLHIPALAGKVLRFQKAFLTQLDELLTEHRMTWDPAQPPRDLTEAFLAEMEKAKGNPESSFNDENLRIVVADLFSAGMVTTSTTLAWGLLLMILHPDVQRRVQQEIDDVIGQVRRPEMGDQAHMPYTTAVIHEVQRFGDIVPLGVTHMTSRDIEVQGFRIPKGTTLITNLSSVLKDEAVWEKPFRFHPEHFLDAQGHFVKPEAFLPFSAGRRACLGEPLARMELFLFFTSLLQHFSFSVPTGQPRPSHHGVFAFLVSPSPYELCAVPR
CYP3A4, sequence (P08684 whole entry): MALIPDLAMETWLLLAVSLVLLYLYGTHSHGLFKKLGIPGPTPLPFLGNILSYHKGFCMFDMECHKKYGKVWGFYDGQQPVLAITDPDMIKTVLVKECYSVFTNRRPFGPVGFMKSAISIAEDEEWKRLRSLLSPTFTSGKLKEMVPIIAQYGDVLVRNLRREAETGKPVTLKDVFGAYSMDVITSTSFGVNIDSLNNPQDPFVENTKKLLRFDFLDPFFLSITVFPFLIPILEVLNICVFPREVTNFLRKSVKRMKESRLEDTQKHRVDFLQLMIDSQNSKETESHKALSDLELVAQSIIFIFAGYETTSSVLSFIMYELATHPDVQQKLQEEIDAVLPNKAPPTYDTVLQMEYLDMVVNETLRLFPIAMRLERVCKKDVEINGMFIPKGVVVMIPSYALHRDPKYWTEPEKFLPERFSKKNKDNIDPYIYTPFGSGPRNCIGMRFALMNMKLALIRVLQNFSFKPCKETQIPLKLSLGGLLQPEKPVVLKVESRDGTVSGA
CYP2C9, sequence (P11712 whole entry): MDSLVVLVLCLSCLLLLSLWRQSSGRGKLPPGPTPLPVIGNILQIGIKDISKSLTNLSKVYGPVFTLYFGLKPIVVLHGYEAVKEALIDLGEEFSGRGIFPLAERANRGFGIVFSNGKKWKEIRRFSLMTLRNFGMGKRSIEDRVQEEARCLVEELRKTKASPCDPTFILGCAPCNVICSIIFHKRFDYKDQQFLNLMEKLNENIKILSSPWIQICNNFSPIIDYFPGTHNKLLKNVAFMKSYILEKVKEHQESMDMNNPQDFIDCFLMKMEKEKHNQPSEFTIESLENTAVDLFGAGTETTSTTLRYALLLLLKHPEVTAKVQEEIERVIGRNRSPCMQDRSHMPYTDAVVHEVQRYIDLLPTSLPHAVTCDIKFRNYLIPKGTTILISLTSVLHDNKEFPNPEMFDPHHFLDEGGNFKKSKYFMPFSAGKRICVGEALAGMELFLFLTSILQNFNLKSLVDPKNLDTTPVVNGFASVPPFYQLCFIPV

Usually IC50 stands for the midpoint of a concentration-inhibition curve. With `O=C(c1ccc(NC(=S)Nc2ccc(-c3nc(N4CCOCC4)nc(N4CCOCC4)n3)cc2)cc1)N1CCCC(CO)C1` (stereo unspecified), the figures for the IC50 (with HCC827; with PC-9; in [1]) were 1980 nM, 4320 nM and 36.6 nM, respectively.
By inhibition is commonly meant the drop in the measured response relative to a control, in per cent. Low values mean little suppression, high ones strong suppression. Turning to `O=C(Nc1ccc(C(=O)N2CCC[C@H]2CO)cc1)Nc1ccc(-c2nc(N3CCOCC3)nc(N3CCOCC3)n2)cc1`, the IC50 in data set [2] turned out to be 2.9 nM; in [3] it was 4.8 nM; in [4] it was 1.1 nM; in data set [5] it was 9.3 nM. For the same compound, the inhibition at 10 µM was 10% against CYP1A2, 25% on CYP2D6, 15% at CYP2C9 and 20% against CYP3A4. Moreover, the inhibition at 20 µM at hERG (KCNH2) was found to be 15%.
Regarding `CN1CCN(C(=O)c2ccc(NC(=S)Nc3ccc(-c4nc(N5CCOCC5)nc(N5CCOCC5)n4)cc3)cc2)CC1`, the IC50 in data set [2] amounted to 127 nM; in data set [3] it was 657 nM; in [4] it was 169 nM; in [5], 338 nM.
With `O=C(c1ccc(NC(=S)Nc2ccc(-c3nc(N4CCOCC4)nc(N4CCOCC4)n3)cc2)cc1)N1CCN(C(=O)C2CCCO2)CC1` (stereo unspecified), the IC50 amounted to 19800 nM in the data set with HCC827, 32700 nM in the data set on PC-9 and 20.3 nM in [1].
With `O=C(c1ccc(NC(=S)Nc2ccc(-c3nc(N4CCOCC4)nc(N4CCOCC4)n3)cc2)cc1)N1CCC[C@H]1CO`, the IC50 came to 24.3 nM in data set [2], 123 nM in [3], 35.4 nM in data set [4] and 106 nM in data set [5].
The corresponding values for `O=C(Nc1ccc(C(=O)N2CCC[C@@H]2CO)cc1)Nc1ccc(-c2nc(N3CCOCC3)nc(N3CCOCC3)n2)cc1` are 4.9 nM, 32.3 nM, 42.5 nM and 34.1 nM.
Turning to `O=C(c1ccc(NC(=S)Nc2ccc(-c3nc(N4CCOCC4)nc(N4CCOCC4)n3)cc2)cc1)N1CCCCC1CO` (stereo unspecified), the IC50 in data set [1] is 70.4 nM.
Regarding `CN(C)C1CCN(C(=O)c2ccc(NC(=O)Nc3ccc(-c4nc(N5CCOCC5)nc(N5CCOCC5)n4)cc3)cc2)CC1` [GEDATOLISIB], the Activity entry in data set [6] is “Toxic”; in data set [7], “Non-toxic”.
Consider `COc1ncc(-c2ccc3nccc(-c4ccnnc4)c3c2)cc1NS(=O)(=O)c1ccc(F)cc1F` [OMIPALISIB], for which the IC50 in data set [3] was determined as 0.86 nM.
